Assay results from ChEMBL document CHEMBL1201862, “PubChem BioAssay data set” (2004).
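Five compound concentrations were applied to cells in 96-well plates for 48 hours; endpoints were derived by simple linear interpolation of the resulting dose-response curve. At the GI50, growth is halved.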 Active and inactive are the calls of the source. No stated cut-off is given here; in the data, active = GI50 up to about 1.1 µM and inactive = higher.

Legend:
Assay in all cases: inhibition of tumour cell growth, NCI panel, 48 h
[1] = tested on: CAKI-1
[2] = tested on: CCRF-CEM
[3] = tested on: EKVX
[4] = tested on: HCC 2998
[5] = tested on: HCT-116
[6] = tested on: HOP-62
[7] = tested on: HOP-92
[8] = tested on: KM12
[9] = tested on: LOX IMVI
[10] = tested on: NCI-H23
[11] = tested on: OVCAR-4
[12] = tested on: OVCAR-5
[13] = tested on: RPMI-8226
[14] = tested on: RXF 393
[15] = tested on: SF-268
[16] = tested on: SK-MEL-28
[17] = tested on: SK-OV-3
[18] = tested on: SNB-19
[19] = tested on: SNB-75
[20] = tested on: TK-10

SMILES	GI50 [1]	GI50 [2]	GI50 [3]	GI50 [4]	GI50 [5]	GI50 [6]	GI50 [7]	GI50 [8]	GI50 [9]	GI50 [10]	GI50 [11]	GI50 [12]	GI50 [13]	GI50 [14]	GI50 [15]	GI50 [16]	GI50 [17]	GI50 [18]	GI50 [19]	GI50 [20]
O=C(O)C(CSC(c1ccccc1)(c1ccccc1)c1ccccc1)/N=C/c1cccs1 (stereo unspecified)	7.46 µM (inactive)	1.87 µM (inactive)	5.42 µM (inactive)	2.06 µM (inactive)	0.468 µM (active)	5.62 µM (inactive)	14.6 µM (inactive)	2.78 µM (inactive)	4.34 µM (inactive)	4.94 µM (inactive)	15.1 µM (inactive)	5.45 µM (inactive)	2.45 µM (inactive)	2.07 µM (inactive)	2.42 µM (inactive)	7.48 µM (inactive)	0.968 µM (active)	2.42 µM (inactive)	5.48 µM (inactive)	10.8 µM (inactive)
CC(Cc1ccccc1)NC1=NCCO1 (stereo unspecified)	> 100 µM (inactive)		54 µM (inactive)	27.6 µM (inactive)	18 µM (inactive)	84.1 µM (inactive)	26.9 µM (inactive)		18.2 µM (inactive)	24.9 µM (inactive)	36.2 µM (inactive)	> 100 µM (inactive)	37.8 µM (inactive)	52.5 µM (inactive)			> 100 µM (inactive)	35.6 µM (inactive)	43.3 µM (inactive)	
CCN1CCC(O)(c2ccc(O)cc2)C(C(=O)c2ccc(O)cc2)C1 (stereo unspecified)		11.5 µM (inactive)	28.2 µM (inactive)	> 10 µM (inactive)	20.3 µM (inactive)	> 100 µM (inactive)	19.7 µM (inactive)	22.2 µM (inactive)	12.5 µM (inactive)	20.3 µM (inactive)	27.7 µM (inactive)	21.1 µM (inactive)	3.21 µM (inactive)	16.6 µM (inactive)	39.2 µM (inactive)	17 µM (inactive)	> 100 µM (inactive)	> 100 µM (inactive)	11.2 µM (inactive)	17.3 µM (inactive)
N#CC(C#N)=C1CCC2C(=C(C#N)C#N)CCC12 (stereo unspecified)	> 100 µM (inactive)	> 100 µM (inactive)	> 100 µM (inactive)	> 100 µM (inactive)	> 100 µM (inactive)	> 100 µM (inactive)	> 100 µM (inactive)	> 100 µM (inactive)	> 100 µM (inactive)	> 100 µM (inactive)	> 100 µM (inactive)	> 100 µM (inactive)	> 100 µM (inactive)	> 100 µM (inactive)	> 100 µM (inactive)		> 100 µM (inactive)	> 100 µM (inactive)	> 100 µM (inactive)	> 100 µM (inactive)
C=C=C(Sc1ccccc1)C(C)(C)OC(C)=O	34.9 µM (inactive)	20.2 µM (inactive)		20.9 µM (inactive)	13.9 µM (inactive)		15.8 µM (inactive)	16 µM (inactive)	16.5 µM (inactive)	17.2 µM (inactive)	31.2 µM (inactive)	20.3 µM (inactive)	30.7 µM (inactive)	14.7 µM (inactive)	13.9 µM (inactive)	17.1 µM (inactive)	25.1 µM (inactive)	18.8 µM (inactive)	21.2 µM (inactive)	32.5 µM (inactive)
